We go through eight compounds from article PMC10610214 (Pharmaceuticals, 2023).

Each structure is given as a SMILES string.

The term IC50 denotes the midpoint of a concentration-inhibition curve.

One data set relates to H2O2-induced PC12 cells. In words: Neuroprotection against H2O2-induced PC12 cell injury (MTT). The class given is cell-based. The settings on record: H2O2 250 μM, mean ± SEM. On the procedure:
Neuroprotection assay is similar to cytotoxicity. Oxidative cellular damage caused by H2O2 has become one of the important methods to study oxidative damage in neural cells. PC12 cells were seeded into a 96-well plate at a density of 5.0 × 10^3 cells per well. After the cells were incubated overnight, the old medium was discarded. […] After incubating overnight, 20 μL of MTT solution (5 mg/mL, Sigma-Aldrich) was added per well, and the cells were incubated for an additional 4 h. Afterwards, the supernatant was removed and 150 μL of DMSO was added. The 96-well plate was placed on the shaker for 10–15 min, and then the absorbance at 492 nm was measured by a microplate reader.

The target of another data set is T1, AChE (from electric eel) (Electrophorus electricus, UniProt O42275).
T1 construct: AChE (from electric eel); purchased Sigma Chemical Company (St. Louis, MO, USA)
T1 sequence (O42275 24-633): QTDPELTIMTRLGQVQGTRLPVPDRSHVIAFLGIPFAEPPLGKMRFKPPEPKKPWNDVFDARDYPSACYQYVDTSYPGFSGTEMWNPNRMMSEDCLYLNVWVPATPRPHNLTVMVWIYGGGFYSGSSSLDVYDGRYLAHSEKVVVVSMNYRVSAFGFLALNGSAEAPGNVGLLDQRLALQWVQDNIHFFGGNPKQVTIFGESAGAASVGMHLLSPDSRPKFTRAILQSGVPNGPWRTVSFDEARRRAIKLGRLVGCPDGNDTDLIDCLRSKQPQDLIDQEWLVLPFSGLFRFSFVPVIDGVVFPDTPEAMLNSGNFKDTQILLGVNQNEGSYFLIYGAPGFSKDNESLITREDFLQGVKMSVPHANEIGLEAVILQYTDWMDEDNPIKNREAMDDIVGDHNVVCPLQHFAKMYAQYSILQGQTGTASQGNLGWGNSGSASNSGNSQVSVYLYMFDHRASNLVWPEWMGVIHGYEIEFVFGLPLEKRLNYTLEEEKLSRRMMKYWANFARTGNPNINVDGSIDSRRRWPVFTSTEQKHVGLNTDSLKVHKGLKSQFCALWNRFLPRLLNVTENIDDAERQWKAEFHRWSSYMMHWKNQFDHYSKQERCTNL
In words: biochemical. As to conditions: for IC50: AChE from electric eel, mean ± SD of three experiments, read-out: AChE Inhibition (IC50); for Selective Index, IC50 (BChE)/IC50 (AChE): AChE selectivity index. On the procedure:
(§1) The ChE inhibitory activity of the test compounds was determined using the modified Ellman’s method. The compounds were dissolved in DMSO (10 mmol/L) and then diluted with PB (phosphate buffer) solution to attain a range of final concentrations. […] Briefly, 100 μL of different concentrations of the test or standard compounds and 100 μL of AChE/BuChE (0.5 U/mL) were added into 48-well plates and then co-incubated at 37 °C for 30 min. […] All concentrations mentioned are final.

The target of data set [1] is T2, BuChE (from equine serum) (Equus caballus, UniProt P81908).
T2 construct: BuChE (from equine serum); purchased Sigma Chemical Company (St. Louis, MO, USA); host or cells: equine serum
T2 sequence (P81908 whole entry): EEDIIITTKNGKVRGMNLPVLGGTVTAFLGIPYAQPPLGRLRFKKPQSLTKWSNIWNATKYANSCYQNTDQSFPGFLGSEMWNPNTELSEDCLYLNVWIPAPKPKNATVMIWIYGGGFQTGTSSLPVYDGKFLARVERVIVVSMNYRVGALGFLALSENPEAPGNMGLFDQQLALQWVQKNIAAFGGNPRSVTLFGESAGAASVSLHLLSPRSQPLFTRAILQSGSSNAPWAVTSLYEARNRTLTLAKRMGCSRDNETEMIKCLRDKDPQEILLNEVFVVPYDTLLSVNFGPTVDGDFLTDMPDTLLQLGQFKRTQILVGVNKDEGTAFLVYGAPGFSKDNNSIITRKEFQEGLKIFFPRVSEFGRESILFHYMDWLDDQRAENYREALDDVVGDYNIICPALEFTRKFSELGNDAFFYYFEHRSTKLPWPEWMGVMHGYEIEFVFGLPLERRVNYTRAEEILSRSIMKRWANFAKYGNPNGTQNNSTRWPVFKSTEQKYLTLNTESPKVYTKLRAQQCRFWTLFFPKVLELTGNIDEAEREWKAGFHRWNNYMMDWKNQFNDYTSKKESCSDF
As to the kind of experiment: biochemical. As to conditions: mean ± SD of three experiments, read-out: BuChE Inhibition (IC50). On the procedure:
as §1

The test system of another data set is PC12 cells. As to the kind of experiment: Cytotoxicity in PC12 cells (MTT). In kind it is cell-based. On the procedure: The cytotoxicity and neuroprotective effects of the compounds on PC12 cells were evaluated by MTT assay. PC12 cells were seeded into a 96-well plate at a density of 5.0 × 10^3 cells per well. After the cells were incubated overnight, the old medium was discarded. The cells were incubated for another 24 h with fresh medium containing compounds at a concentration of 30 or 50 μM. A total of 20 μL of MTT solution (5 mg/mL, Sigma-Aldrich, Shanghai, China) was then added per well, and the cells were incubated for an additional 4 h. Afterwards, the supernatant was removed and 150 μL of DMSO was added to solubilize formazan crystals. The 96-well plate was placed on the shaker for 10–15 min, and then the absorbance at 492 nm was measured by a microplate reader.

Take `O=C1c2ccccc2-n2c1nc1ccc(NS(=O)(=O)c3ccc(Br)cc3)cc1c2=O` [8e]: the “H2O2-Induced PC12 Cell Viability (% of Control)” value is 41.78 ± 1.2 % of Control with H2O2-induced PC12 cells (compound 10 μM) and 55.86 ± 0.9 % of Control in the data set with H2O2-induced PC12 cells (compound 30 μM). In addition, the IC50 (at AChE (from electric eel); in data set [1]) was > 50 µM throughout. Besides, the “Cell Viability (% of Control)” value with PC12 cells (compound 30 μM) was 99.8 ± 0.7 % of Control; with PC12 cells (compound 50 μM), 99.7 ± 3.1 % of Control.

`O=C1c2cc(NS(=O)(=O)c3ccc(OC(F)(F)F)cc3)ccc2-n2c1nc1ccccc1c2=O` [4m]: the “H2O2-Induced PC12 Cell Viability (% of Control)” value is on record as 37.89 ± 4.3 % of Control in the data set with H2O2-induced PC12 cells (compound 10 μM) and 44.98 ± 2.5 % of Control in the data set with H2O2-induced PC12 cells (compound 30 μM). Moreover, the IC50 at AChE (from electric eel) is 7.75 ± 0.21 µM; in data set [1], 10.2 ± 1.24 µM. Besides, the “Cell Viability (% of Control)” value in the data set on PC12 cells (compound 30 μM) is recorded as 99.6 ± 0.8 % of Control; in the data set with PC12 cells (compound 50 μM), 99.3 ± 2.1 % of Control.

For `CC(C)(C)c1ccc(S(=O)(=O)Nc2ccc3c(c2)C(=O)c2nc4ccccc4c(=O)n2-3)cc1` [4c], the “H2O2-Induced PC12 Cell Viability (% of Control)” value is on record as 45.59 ± 0.7 % of Control with H2O2-induced PC12 cells (compound 10 μM) and 56.4 ± 1.2 % of Control in the data set with H2O2-induced PC12 cells (compound 30 μM). Further, the values for the IC50 (on AChE (from electric eel); in data set [1]) were 2.56 ± 0.32 µM and 8.13 ± 1.21 µM, respectively. The “Selective Index, IC50 (BChE)/IC50 (AChE)” value at AChE (from electric eel) is reported as 3.2. Also, the “Cell Viability (% of Control)” value is 99.5 ± 3.1 % of Control in the data set on PC12 cells (compound 30 μM) and 98.2 ± 1.7 % of Control in the data set with PC12 cells (compound 50 μM).

As for `CC(C)c1cc(C(C)C)c(S(=O)(=O)Nc2ccc3nc4n(c(=O)c3c2)-c2ccccc2C4=O)c(C(C)C)c1` [8d], the “H2O2-Induced PC12 Cell Viability (% of Control)” value in the data set on H2O2-induced PC12 cells (compound 10 μM) was 39.65 ± 5.2 % of Control; in the data set with H2O2-induced PC12 cells (compound 30 μM), 53.26 ± 1.4 % of Control. The IC50 (at AChE (from electric eel); in data set [1]) was > 50 µM throughout. In addition, the “Cell Viability (% of Control)” value in the data set with PC12 cells (compound 30 μM) is recorded as 99.8 ± 0.7 % of Control; in the data set with PC12 cells (compound 50 μM), 98.7 ± 2.6 % of Control.

`O=C1c2cc(NS(=O)(=O)c3ccccc3)ccc2-n2c1nc1ccccc1c2=O` [4a]: the “H2O2-Induced PC12 Cell Viability (% of Control)” value in the data set with H2O2-induced PC12 cells (compound 10 μM) is reported as 43.29 ± 3.1 % of Control; with H2O2-induced PC12 cells (compound 30 μM) it was 48.5 ± 1.5 % of Control. Moreover, the IC50 on AChE (from electric eel) was determined as 0.97 ± 0.16 µM; in data set [1], 9.98 ± 0.64 µM. Besides, the “Selective Index, IC50 (BChE)/IC50 (AChE)” value on AChE (from electric eel) is listed as 10.3. Also, the “Cell Viability (% of Control)” value in the data set with PC12 cells (compound 30 μM) is recorded as 99.5 ± 1.7 % of Control; with PC12 cells (compound 50 μM), 98.3 ± 3.0 % of Control.

Consider `O=C1c2ccccc2-n2c1nc1ccc(NS(=O)(=O)c3ccc(OC(F)(F)F)cc3)cc1c2=O` [8m], for which the “H2O2-Induced PC12 Cell Viability (% of Control)” value is 44.67 ± 2.3 % of Control with H2O2-induced PC12 cells (compound 10 μM) and 53.92 ± 3.9 % of Control in the data set on H2O2-induced PC12 cells (compound 30 μM). Besides, the half-maximal inhibitory concentration (IC50) (at AChE (from electric eel); in data set [1]) was > 50 µM throughout. The results for the “Cell Viability (% of Control)” value in the data set on PC12 cells (compound 30 μM) and in the data set on PC12 cells (compound 50 μM) were 99.5 ± 3.1 % of Control and 98.2 ± 1.7 % of Control, respectively.

`COc1ccc(S(=O)(=O)Nc2ccc3c(c2)C(=O)c2nc4ccccc4c(=O)n2-3)cc1OC` [4k]: the “H2O2-Induced PC12 Cell Viability (% of Control)” value was 44.35 ± 1.5 % of Control in the data set with H2O2-induced PC12 cells (compound 10 μM) and 46.23 ± 0.6 % of Control in the data set on H2O2-induced PC12 cells (compound 30 μM). The IC50 is 25.4 ± 1.53 µM at AChE (from electric eel) and > 50 µM in data set [1]. The “Cell Viability (% of Control)” value in the data set with PC12 cells (compound 30 μM) is 98.8 ± 1.9 % of Control; in the data set on PC12 cells (compound 50 μM), 98.2 ± 3.4 % of Control.

As for `Cc1ccc(S(=O)(=O)Nc2ccc3c(c2)C(=O)c2nc4ccccc4c(=O)n2-3)cc1` [4b], the “H2O2-Induced PC12 Cell Viability (% of Control)” value with H2O2-induced PC12 cells (compound 10 μM) is given as 47.36 ± 1.7 % of Control; in the data set on H2O2-induced PC12 cells (compound 30 μM) it was 59.09 ± 2.5 % of Control. The figures for the IC50 (at AChE (from electric eel); in data set [1]) were 5.75 ± 0.27 µM and 8.61 ± 1.2 µM, respectively. Also, the “Selective Index, IC50 (BChE)/IC50 (AChE)” value at AChE (from electric eel) is given as 1.5. The “Cell Viability (% of Control)” value was 99.7 ± 0.9 % of Control with PC12 cells (compound 30 μM) and 99.5 ± 1.5 % of Control with PC12 cells (compound 50 μM).
